From patent publication US20170129903A1, “COMPOUNDS COMPRISING 1,1a,2,5a-TETRAHYDROSPIRO[INDOLE-3,2a-PYRROLE]-2,5a-DIONE SYSTEM AS INHIBITORS P53-MDM2 PROTEIN-PROTEIN INTERACTION” (ADAMED SP. Z O.O., priority 2014, published 2017)

Biological target: T1, p53-Mdm2 interaction (N-terminal domain of Mdm2 protein, amino acids 1-111) (Homo sapiens, UniProt Q00987)
T1 construct: N-terminal domain of Mdm2 protein (amino acids 1-111)
Assay: Fluorescence polarization (FP) binding assay of p53-Mdm2 interaction
Details: for Ki: FP assay, 130 nM Mdm2, FAM-labelled p53 peptide, Ki transformed from IC50 using Kenakin equation
Description: The inhibition of p53-Mdm2 interaction was measured using a fluorescence polarization (FP) binding assay. FP measures the rotational movement of molecules in a homogenous suspension. For this assay, N-terminal domain of Mdm2 protein (amino acids 1-111) is combined with a fluorescein-labelled (FAM) peptide derived from p53 trans-activation domain. Upon excitation of the fluorescent ligand with linearly polarized light, […]. If the peptide is bound by Mdm2, rotation will slow down and the perpendicular component will decrease. Disruption of the formation of the peptide-Mdm2 complex due to an inhibitor molecule binding to the p53 binding site of Mdm2 results in faster rotation of the peptide.
Fluorescence polarization experiments were read on Tecan Infinite M1000 reader with the 470 nm excitation and 520 nm emission filters for fluorescein. The fluorescence polarization was measured in black 96-well plates (Corning, CLS3991) in room temperature. Purity of Mdm2 was controlled at >95%. Reaction buffer was optimized by adding 5 mM DTT and 0.1% zwitterionic detergent CHAPS to reduce effect of nonspecific interactions.
The test was performed by combining successive dilution of compounds diluted in dimethyl sulfoxide (DMSO, 5% final concentration) with 130 nM Mdm2 in reaction buffer (PBS, 0.1% CHAPS, 5 mM DTT (dithiothreitol)). After 15 minutes of incubation in room temperature […] FAM-labelled peptide was added. Final reading was performed after 90 minutes of incubation. Dose-dependent binding curves and IC50 values were calculated using GraphPad Prism5 and next transformed to Ki values using Kenakin equation.

T1 sequence (Q00987 1-111): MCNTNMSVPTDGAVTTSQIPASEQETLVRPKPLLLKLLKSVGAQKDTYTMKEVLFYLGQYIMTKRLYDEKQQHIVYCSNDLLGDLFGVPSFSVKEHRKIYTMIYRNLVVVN

Row | Ki [nM] | times less potent than Compound 56 (enantiomer) (G=S) | SMILES
1 | 51 | – | O=C(C1=C(O)C(=O)N(c2cccc(Cl)c2)C12C(=O)Nc1cc(Cl)ccc12)c1ccccc1 (stereo not drawn) [Compound 3, 3′-benzoyl-6-chloro-1′-(3-chlorophenyl)-4′-hydroxy-1,1′,2,5′-tetrahydrospiro[indole-3,2′-pyrrole]-2,5′-dione]
2 | 700 | – | COc1ccc(Cl)cc1N1C(=O)C(O)=C(C(=O)C2(C)CC2)C12C(=O)Nc1cc(Cl)ccc12 (stereo not drawn) [Compound 7, 6-chloro-1′-(5-chloro-2-methoxyphenyl)-4′-hydroxy-3′-(1-methylcyclopropane-carbonyl)-1,1′,2,5′-tetrahydrospiro[indole-3,2′-pyrrole]-2,5′-dione]
3 | 268 | – | CC(C)C(=O)C1=C(O)C(=O)N(c2cc(Cl)ccc2O)C12C(=O)Nc1cc(Cl)ccc12 (stereo not drawn) [Compound 9, 6-chloro-1′-(5-chloro-2-hydroxyphenyl)-4′-hydroxy-3′-(iso-propanoyl)-1,1′,2,5′-tetrahydrospiro[indole-3,2′-pyrrole]-2,5′-dione]
4 | 1390 | – | COc1ccccc1-n1nc(C(C)C)c2c1C(=O)N(c1cc(Cl)ccc1C)C21C(=O)Nc2cc(Cl)ccc21 (stereo not drawn) [Compound 32, 6-chloro-5′-(5-chloro-2-methylphenyl)-1′-(2-methoxyphenyl)-3′-(propan-2-yl)-1,2,5′,6′-tetrahydro-1′H-spiro[indole-3,4′-pyrrolo[3,4-c]pyrazole]-2,6′-dione]
5 | 190 | – | O=C1C(O)=C(c2cccc(Cl)c2)C2(C(=O)Nc3cc(Cl)ccc32)N1c1ccccc1 (stereo not drawn) [Compound 37, 6-chloro-3′-(3-chlorophenyl)-4′-hydroxy-1′-phenyl-1,1′,2,5′-tetrahydrospiro[indole-3,2′-pyrrole]-2,5′-dione]
6 | 38 | – | O=C(O)CNC1=C(c2ccccc2)C2(C(=O)Nc3cc(Cl)ccc32)N(c2cccc(Cl)c2)C1=O (stereo not drawn) [Compound 49, 2-{[6-chloro-1′-(3-chlorophenyl)-2,5′-dioxo-3′-phenyl-1,1′,2,5′-tetrahydrospiro [indole-3,2′-pyrrole]-4′-yl]amino}acetic acid]
7 | 130 | – | O=C(O)CSC1=C(c2ccccc2)C2(C(=O)Nc3cc(Cl)ccc32)N(c2cccc(Cl)c2)C1=O (stereo not drawn) [Compound 51, 2-[6-chloro-1′-(3-chlorophenyl)-2,5′-dioxo-3′-phenyl-1,1′,2,5′-tetrahydrospiro [indole-3,2′-pyrrole]-4′-ylsulfanyl]acetic acid]
8 | 123 | – | O=C1C(O)=C(Sc2ccc(Cl)cc2)C2(C(=O)Nc3cc(Cl)ccc32)N1c1cccc(Cl)c1 (stereo not drawn) [Compound 54, 6-chloro-1′-(3-chlorophenyl)-3′-[(4-chlorophenyl)sulfanyl]-4′-hydroxy-1,1′,2,5′-tetrahydrospiro[indole-3,2′-pyrrole]-2,5′-dione]
9 | 1910 | about 19 times | O=C1C(O)=C(Sc2ccc(Cl)cc2)[C@]2(C(=O)Nc3cc(Cl)ccc32)N1c1cccc(Cl)c1 [Compound 55, (3S)-6-chloro-1′-(3-chlorophenyl)-3′-[(4-chlorophenyl)sulfanyl]-4′-hydroxy-1,1′,2,5′-tetrahydrospiro[indole-3,2′-pyrrole]-2,5′-dione]
10 | 100 | – | O=C1C(O)=C(Sc2ccc(Cl)cc2)[C@@]2(C(=O)Nc3cc(Cl)ccc32)N1c1cccc(Cl)c1 [Compound 56, (3R)-6-chloro-1′-(3-chlorophenyl)-3′[(4-chlorophenyl)sulfanyl]-4′-hydroxy-1,1′,2,5′-tetrahydrospiro[indole-3,2′-pyrrole]-2,5′-dione]
11 | 2.4 | – | COc1ccccc1-n1nc2c(c1C(C)C)C1(C(=O)Nc3cc(Cl)ccc31)N(c1cc(Cl)c(=O)n(C)c1)C2=O (stereo not drawn) [Compound 63, 6-chloro-5′-(5-chloro-1-methyl-6-oxo-1,6-dihydropyridin-3-yl)-2′-(2-methoxy-phenyl)-3′-(propan-2-yl)-1,2,5′,6′-tetrahydro-2′H-spiro[indole-3,4′-pyrrolo [3,4-c]pyrazole]-2,6′-dione]

Second part, the molecule before the results:

Row | SMILES | Ki [nM] | times less potent than Compound 56 (enantiomer) (G=S)
12 | CC1(C(=O)C2=C(O)C(=O)N(c3cc(Cl)ccc3F)C23C(=O)Nc2cc(Cl)ccc23)CC1 (stereo not drawn) [Compound 1, 6-chloro-1′-(5-chloro-2-fluorophenyl)-4′-hydroxy-3′-(1-methylcyclopropane-carbonyl)-1,1′,2,5′-tetrahydrospiro[indole-3,2′-pyrrole]-2,5′-dione] | 354 | –
13 | Cc1ccc(Cl)cc1N1C(=O)C(O)=C(C(=O)C2(C)CC2)C12C(=O)Nc1cc(Cl)ccc12 (stereo not drawn) [Compound 2, 6-chloro-1′-(5-chloro-2-methylphenyl)-4′-hydroxy-3′-(1-methylcyclopropane-carbonyl)-1,1′,2,5′-tetrahydrospiro[indole-3,2′-pyrrole]-2,5′-dione] | 122 | –
14 | CC1(C(=O)C2=C(O)C(=O)N(c3cccc(Cl)c3)C23C(=O)Nc2cc(Cl)ccc23)CC1 (stereo not drawn) [Compound 5, 6-chloro-1′-(3-chlorophenyl)-4′-hydroxy-3′-(1-methylcyclopropanecarbonyl)-1,1′,2,5′-tetrahydrospiro[indole-3,2′-pyrrole]-2,5′-dione] | 194 | –
15 | CC(C)(C)C(=O)C1=C(O)C(=O)N(c2cccc(Cl)c2)C12C(=O)Nc1cc(Cl)ccc12 (stereo not drawn) [Compound 6, 6-chloro-1′-(3-chlorophenyl)-3′-(2,2-tert-butanoyl)-4′-hydroxy-1,1′,2,5′-tetrahydrospiro[indole-3,2′-pyrrole]-2,5′-dione] | 102 | –
16 | Cc1ccc(Cl)cc1N1C(=O)C(O)=C(C(=O)C(C)C)C12C(=O)Nc1cc(Cl)ccc12 (stereo not drawn) [Compound 8, 6-chloro-1′-(5-chloro-2-methylphenyl)-4′-hydroxy-3′-(iso-propanoyl)-1,1′,2,5′-tetrahydrospiro[indole-3,2′-pyrrole]-2,5′-dione] | 120 | –
17 | COc1ccc(Cl)cc1N1C(=O)C(O)=C(C(=O)C(C)C)C12C(=O)Nc1cc(Cl)ccc12 (stereo not drawn) [Compound 10, 6-chloro-1′-(5-chloro-2-methoxyphenyl)-4′-hydroxy-3′-(iso-propanoyl)-1,1′,2,5′-tetrahydrospiro[indole-3,2′-pyrrole]-2,5′-dione] | 610 | –
18 | CC(C)OCC(C)(C)C(=O)C1=C(O)C(=O)N(c2cccc(Cl)c2)C12C(=O)Nc1cc(Cl)ccc12 (stereo not drawn) [Compound 13, 6-chloro-1′-(3-chlorophenyl)-3′-[2,2-dimethyl-3-(propan-2-yloxy)propanoyl]-4′-hydroxy-1,1′,2,5′-tetrahydrospiro[indole-3,2′-pyrrole]-2,5′-dione] | 196 | –
19 | CCOC(=O)CNC1=C(C(=O)C2(C)CC2)C2(C(=O)Nc3cc(Cl)ccc32)N(c2cccc(Cl)c2)C1=O (stereo not drawn) [Compound 15, ethyl 2-{[6-chloro-1′-(3-chlorophenyl)-3′-(1-methylcyclopropanecarbonyl)-2,5′-dioxo-1,1′,2,5′-tetrahydrospiro[indole-3,2′-pyrrole]-4′-yl]amino}acetate] | 349 | –
20 | CCOC(=O)/C=C/C(=O)Nc1cccc(C(=O)C2=C(O)C(=O)N(c3cccc(Cl)c3)C23C(=O)Nc2cc(Cl)ccc23)c1 (stereo not drawn) [Compound 17, ethyl (2E)-3-[(3-{[6-chloro-1′-(3-chloro-phenyl)-4′-hydroxy-2,5′-dioxo-1,1′,2,5′-tetrahydrospiro[indole-3,2′-pyrrole]-3′-yl]carbonyl}phenyl)carbamoyl]prop-2-enoate] | 57 | –
21 | CC(C)(C)CN1C(=O)C(O)=C(c2cccc(Cl)c2)C12C(=O)Nc1cc(Cl)ccc12 (stereo not drawn) [Compound 36, 6-chloro-3′-(3-chlorophenyl)-1′-(2,2-dimethylpropyl)-4′-hydroxy-1,1′,2,5′-tetrahydrospiro[indole-3,2′-pyrrole]-2,5′-dione] | 295 | –
22 | O=C1C(O)=C(c2ccccc2)C2(C(=O)Nc3ccc(Cl)cc32)N1c1cccc(Cl)c1 (stereo not drawn) [Compound 38, 5-chloro-1′-(3-chlorophenyl)-4′-hydroxy-3′-phenyl-1,1′,2,5′-tetrahydrospiro[indole-3,2′-pyrrole]-2,5′-dione] | 550 | –
23 | O=C1C(O)=C(c2ccccc2)C2(C(=O)Nc3ccccc32)N1c1cccc(Cl)c1 (stereo not drawn) [Compound 39, 1′-(3-chlorophenyl)-4′-hydroxy-3′-phenyl-1,1′,2,5′-tetrahydrospiro[indole-3,2′-pyrrole]-2,5′-dione] | 750 | –
24 | O=C1C(O)=C(c2ccccc2)C2(C(=O)Nc3cc(F)ccc32)N1c1cccc(Cl)c1 (stereo not drawn) [Compound 42, 1′-(3-chlorophenyl)-6-fluoro-4′-hydroxy-3′-phenyl-1,1′,2,5′-tetrahydrospiro[indole-3,2′-pyrrole]-2,5′-dione] | 90 | –
25 | CCC(C)SC1=C(O)C(=O)N(c2cccc(Cl)c2)C12C(=O)Nc1cc(Cl)ccc12 (stereo not drawn) [Compound 57, 3′-(butan-2-ylsulfanyl)-6-chloro-1′-(3-chlorophenyl)-4′-hydroxy-1,1′,2,5′-tetrahydrospiro[indole-3,2′-pyrrole]-2,5′-dione] | 79 | –
26 | CC(C)(C)SC1=C(O)C(=O)N(c2cccc(Cl)c2)C12C(=O)Nc1cc(Cl)ccc12 (stereo not drawn) [Compound 58, 3′-(tert-butylsulfanyl)-6-chloro-1′-(3-chlorophenyl)-4′-hydroxy-1,1′,2,5′-tetrahydrospiro[indole-3,2′-pyrrole]-2,5′-dione] | 82 | –
